The term IC50 denotes the concentration that gives 50% inhibition. A lower IC50 goes with inhibition by little substance.

Bounds are passed on as bounds.

The target in this experiment is T1, hNK2 receptor (Homo sapiens, UniProt P21452).
T1 construct: host or cells: CHO cells
T1 sequence (P21452 1-398): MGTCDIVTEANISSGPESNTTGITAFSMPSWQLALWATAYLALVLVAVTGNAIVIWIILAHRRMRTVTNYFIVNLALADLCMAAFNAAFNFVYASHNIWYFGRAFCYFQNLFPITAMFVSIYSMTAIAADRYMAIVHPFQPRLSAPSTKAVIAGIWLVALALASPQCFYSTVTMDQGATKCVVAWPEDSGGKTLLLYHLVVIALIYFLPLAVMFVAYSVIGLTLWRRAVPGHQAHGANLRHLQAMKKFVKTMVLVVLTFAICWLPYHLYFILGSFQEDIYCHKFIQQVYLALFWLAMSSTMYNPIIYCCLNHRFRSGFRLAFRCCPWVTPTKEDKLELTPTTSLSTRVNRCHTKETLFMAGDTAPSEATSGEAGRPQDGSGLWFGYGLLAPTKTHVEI
Briefly: Radio-ligand ([125I]-NKA) receptor binding inhibitory activity using membrane fraction of hNK2 receptor-expressing CHO cell. The conditions noted are these: membrane fraction of hNK2 receptor-expressing CHO cells, 25° C., 30 min. Put shortly:
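Inhibition of [125I]-NKA binding ([…] solution added) measured after 30 min at 25 °C using hNK2-CHO membrane fraction (20 μg/mL suspension) in pH 7.4 Tris buffer containing MnCl2, BSA and protease inhibitors. Filter-bound counts read; activity calculated as fraction of specific binding, non-specific defined with unlabeled NKA.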
`COC[C@@H]1Nc2ccccc2[C@H]2[C@@H]1CCN2C(=O)[C@H]1CCCC[C@H]1NC(=O)c1ccc(C(F)(F)F)cc1` [Example 210, N-((1R,2S)-2-{[(3aR,4R,9bR)-4-(Methoxymethyl)-2,3,3a,4,5,9b-hexahydro-1H-pyrrolo[3,2-c]quinolin-1-yl]carbonyl}cyclohexyl)-4-(trifluoromethyl)benzamide] came in with a half-maximal inhibitory concentration (IC50) of under 1 nM.
The value for `COC[C@@H]1Nc2ccccc2[C@H]2[C@@H]1CCN2C(=O)[C@H]1CCCC[C@H]1NC(=O)c1ccc(C)nc1` [Example 211, N-((1R,2S)-2-{[(3aR,4R,9bR)-4-(Methoxymethyl)-2,3,3a,4,5,9b-hexahydro-1H-pyrrolo[3,2-c]quinolin-1-yl]carbonyl}cyclohexyl)-6-methylnicotinamide] was under 10 nM; that for `COC[C@@H]1Nc2ccccc2[C@H]2[C@@H]1CCN2C(=O)[C@H]1CCCC[C@H]1NC(=O)c1ccc(F)c(F)c1` [Example 212, 3,4-Difluoro-N-((1R,2S)-2-{[(3aR,4R,9bR)-4-(methoxymethyl)-2,3,3a,4,5,9b-hexahydro-1H-pyrrolo[3,2-c]quinolin-1-yl]carbonyl}cyclohexyl)benzamide] was under 1 nM.
The value for `COC[C@@H]1Nc2ccccc2[C@H]2[C@@H]1CCN2C(=O)[C@H]1CCCC[C@H]1NC(=O)c1ccc(N(C)C)cc1` [Example 213, 4-(Dimethylamino)-N-((1R,2S)-2-{[(3aR,4R,9bR)-4-(methoxymethyl)-2,3,3a,4,5,9b-hexahydro-1H-pyrrolo[3,2-c]quinolin-1-yl]carbonyl}cyclohexyl)benzamide] was under 1 nM.
For the compound `COC[C@@H]1Nc2ccccc2[C@H]2[C@@H]1CCN2C(=O)[C@H]1CCCC[C@H]1NC(=O)c1ccc(OC(F)(F)F)cc1` [Example 215, N-((1R,2S)-2-{[(3aR,4R,9bR)-4-(Methoxymethyl)-2,3,3a,4,5,9b-hexahydro-1H-pyrrolo[3,2-c]quinolin-1-yl]carbonyl}cyclohexyl)-4-(trifluoromethoxy)benzamide], the half-maximal inhibitory concentration (IC50) was under 1 nM.
Turning to `COC[C@@H]1Nc2ccccc2[C@H]2[C@@H]1CCN2C(=O)[C@H]1CCCC[C@H]1NC(=O)c1ccc(C#N)cc1` [Example 216, 4-Cyano-N-((1R,2S)-2-{[(3aR,4R,9bR)-4-(methoxymethyl)-2,3,3a,4,5,9b-hexahydro-1H-pyrrolo[3,2-c]quinolin-1-yl]carbonyl}cyclohexyl)benzamide], the 50% inhibitory concentration (IC50) is under 10 nM.
The value for `COC[C@@H]1Nc2ccccc2[C@H]2[C@@H]1CCN2C(=O)[C@H]1CCCC[C@H]1NC(=O)Nc1ccc(C#N)cc1` [Example 217, N-(Cyanophenyl)-N′-((1R,2S)-2-{[(3aR,4R,9bR)-4-(methoxymethyl)-2,3,3a,4,5,9b-hexahydro-1H-pyrrolo[3,2-c]quinolin-1-yl]carbonyl}cyclohexyl)urea] was under 1 nM; that for `COC[C@@H]1Nc2ccccc2[C@H]2[C@@H]1CCN2C(=O)[C@H]1CCCC[C@H]1NC(=O)c1ccc2[nH]ccc2c1` [Example 218, N-((1R,2S)-2-{[(3aR,4R,9bR)-4-(Methoxymethyl)-2,3,3a,4,5,9b-hexahydro-1H-pyrrolo[3,2-c]quinolin-1-yl]carbonyl}cyclohexyl)-1H-indole-5-carboxamide] was under 1 nM; that for `COC[C@@H]1Nc2ccccc2[C@H]2[C@@H]1CCN2C(=O)[C@H]1CCCC[C@H]1NC(=O)c1ccc2[nH]nnc2c1` [Example 219, N-((1R,2S)-2-{[(3aR,4R,9bR)-4-(methoxymethyl)-2,3,3a,4,5,9b-hexahydro-1H-pyrrolo[3,2-c]quinolin-1-yl]carbonyl}cyclohexyl)-1H-1,2,3-benzotriazole-5-carboxamide] was under 1 nM.
Under `COC[C@@H]1Nc2ccccc2[C@H]2[C@@H]1CCN2C(=O)[C@H]1CCCC[C@H]1NC(=O)c1cc2ccccc2[nH]1` [Example 229, N-((1R,2S)-2-{[(3aR,4R,9bR)-4-(Methoxymethyl)-2,3,3a,4,5,9b-hexahydro-1H-pyrrolo[3,2-c]quinolin-1-yl]carbonyl}cyclohexyl)-4H-indole-2-carboxamide] stands under 1 nM; under `COC[C@@H]1Nc2ccccc2[C@H]2[C@@H]1CCN2C(=O)[C@H]1CCCC[C@H]1NC(=O)c1ccccc1C#N` [Example 232, 2-Cyano-N-((1R,2S)-2-{[(3aR,4R,9bR)-4-(methoxymethyl)-2,3,3a,4,5,9b-hexahydro-1H-pyrrolo[3,2-c]quinolin-1-yl]carbonyl}cyclohexyl)benzamide], under 10 nM.
Regarding `COC[C@@H]1Nc2ccccc2[C@H]2[C@@H]1CCN2C(=O)[C@H]1CCCC[C@H]1NC(=O)c1cccc(C#N)c1` [Example 233, 3-Cyano-N-((1R,2S)-2-{[(3aR,4R,9bR)-4-(methoxymethyl)-2,3,3a,4,5,9b-hexahydro-1H-pyrrolo[3,2-c]quinolin-1-yl]carbonyl}cyclohexyl)benzamide], the IC50 was under 10 nM.
`COC[C@@H]1Nc2ccccc2[C@H]2[C@@H]1CCN2C(=O)[C@H]1CCCC[C@H]1NC(=O)c1ccc(OC(F)F)cc1` [Example 234, 4-(Difluoromethoxy)-N-((1R,2S)-2-{[(3aR,4R,9bR)-4-(methoxymethyl)-2,3,3a,4,5,9b-hexahydro-1H-pyrrolo[3,2-c]quinolin-1-yl]carbonyl}cyclohexyl)benzamide] registered an IC50 of under 1 nM.
Under `COC[C@@H]1Nc2ccccc2[C@H]2[C@@H]1CCN2C(=O)[C@H]1CCCC[C@H]1NC(=O)c1nc2ccccc2[nH]1` [Example 237, N-((1R,2S)-2-{[(3aR,4R,9bR)-4-(Methoxymethyl)-2,3,3a,4,5,9b-hexahydro-1H-pyrrolo[3,2-c]quinolin-1-yl]carbonyl}cyclohexyl)-1H-benzimidazole-2-carboxamide] stands under 1 nM; under `COC[C@@H]1Nc2ccccc2[C@H]2[C@@H]1CCN2C(=O)[C@H]1CCCC[C@H]1NC(=O)CNc1ccccc1` [Example 238, N^1-((1R,2S)-2-{[(3aR,4R,9bR)-4-(Methoxymethyl)-2,3,3a,4,5,9b-hexahydro-1H-pyrrolo[3,2-c]quinolin-1-yl]carbonyl}cyclohexyl)-N^2-phenylglycinamide], under 10 nM; under `CNc1ccc(C(=O)N[C@@H]2CCCC[C@@H]2C(=O)N2CC[C@@H]3[C@H](COC)Nc4ccccc4[C@@H]32)cc1` [Example 239, N-((1R,2S)-2-{[(3aR,4R,9bR)-4-(Methoxymethyl)-2,3,3a,4,5,9b-hexahydro-1H-pyrrolo[3,2-c]quinolin-1-yl]carbonyl}cyclohexyl)-4-(methylamino)benzamide], under 1 nM.
Under `COC[C@@H]1Nc2ccccc2[C@H]2[C@@H]1CCN2C(=O)[C@H]1CCCC[C@H]1NC(=O)c1cccc(N(C)C)c1` [Example 241, 3-(Dimethylamino)-N-((1R,2S)-2-{[(3aR,4R,9bR)-4-(methoxymethyl)-2,3,3a,4,5,9b-hexahydro-1H-pyrrolo[3,2-c]quinolin-1-yl]carbonyl}cyclohexyl)benzamide] stands under 10 nM; under `COC[C@@H]1Nc2ccccc2[C@H]2[C@@H]1CCN2C(=O)[C@H]1CCCC[C@H]1NC(=O)c1c[nH]c2ccccc12` [Example 244, N-((1R,2S)-2-{[(3aR,4R,9bR)-4-(Methoxymethyl)-2,3,3a,4,5,9b-hexahydro-1H-pyrrolo[3,2-c]quinolin-1-yl]carbonyl}cyclohexyl)-1H-indole-3-carboxamide], under 10 nM.
Under `COC[C@@H]1Nc2ccccc2[C@H]2[C@@H]1CCN2C(=O)[C@H]1CCCC[C@H]1NC(=O)c1ccc(S(N)(=O)=O)cc1` [Example 245, 4-(Aminosulfonyl)-N-((1R,2S)-2-{[(3aR,4R,9bR)-4-(methoxymethyl)-2,3,3a,4,5,9b-hexahydro-1H-pyrrolo[3,2-c]quinolin-1-yl]carbonyl}cyclohexyl)benzamide] stands under 10 nM.
`COC[C@@H]1Nc2ccccc2[C@H]2[C@@H]1CCN2C(=O)[C@H]1CCCC[C@H]1NC(=O)c1ccc2nccnc2c1` [Example 246, N-((1R,2S)-2-{[(3aR,4R,9bR)-4-(Methoxymethyl)-2,3,3a,4,5,9b-hexahydro-1H-pyrrolo[3,2-c]quinolin-1-yl]carbonyl}cyclohexyl)quinoxaline-6-carboxamide] came in with an IC50 of under 10 nM.
Under `COC[C@@H]1Nc2ccccc2[C@H]2[C@@H]1CCN2C(=O)[C@H]1CCCC[C@H]1NC(=O)c1ccc2ccccc2n1` [Example 247, N-((1R,2S)-2-{[(3aR,4R,9bR)-4-(Methoxymethyl)-2,3,3a,4,5,9b-hexahydro-1H-pyrrolo[3,2-c]quinolin-1-yl]carbonyl}cyclohexyl)quinoline-2-carboxamide] stands under 10 nM; under `COC[C@@H]1Nc2ccccc2[C@H]2[C@@H]1CCN2C(=O)[C@H]1CCCC[C@H]1NC(=O)c1ccc2c(c1)CCO2` [Example 248, N-((1R,2S)-2-{[(3aR,4R,9bR)-4-(Methoxymethyl)-2,3,3a,4,5,9b-hexahydro-1H-pyrrolo[3,2-c]quinolin-1-yl]carbonyl}cyclohexyl)-2,3-dihydro-1-benzofuran-5-carboxamide], under 1 nM.
Take `COC[C@@H]1Nc2ccccc2[C@H]2[C@@H]1CCN2C(=O)[C@H]1CCCC[C@H]1NC(=O)c1onc2ccccc12` [Example 249, N-((1R,2S)-2-{[(3aR,4R,9bR)-4-(Methoxymethyl)-2,3,3a,4,5,9b-hexahydro-1H-pyrrolo[3,2-c]quinolin-1-yl]carbonyl}cyclohexyl)-2,1-benzisoxazole-3-carboxamide]: the half-maximal inhibitory concentration (IC50) was under 10 nM.

Values taken from patent publication US7943770B2, “Fused quinoline derivative and use thereof” (Takeda Pharmaceutical Company Limited, priority 2004, dated 2011).
